According to ChEMBL document CHEMBL1201862, “PubChem BioAssay data set” (2004):
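Assay format: 96-well plates, 48-hour exposure. GI50 = concentration required for 50% inhibition of growth.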 Calls of active or inactive are those of the source. Rule as the data show it: active = GI50 up to about 1.1 µM and inactive = higher.

Columns and labels:
Experiment in all cases: growth of human tumour cells (NCI), 48 h
NCI-H460 = test system: NCI-H460
HL-60 = test system: HL-60
KM12 = test system: KM12
SF-539 = test system: SF-539
SK-OV-3 = test system: SK-OV-3
MDA-MB-435 = test system: MDA-MB-435
UO-31 = test system: UO-31
RPMI-8226 = test system: RPMI-8226
PC-3 = test system: PC-3
M14 = test system: M14
HOP-92 = test system: HOP-92
SN12C = test system: SN12C
RXF 393 = test system: RXF 393
A549 = test system: A549
U-251 = test system: U-251
NCI-H522 = test system: NCI-H522
HOP-62 = test system: HOP-62
OVCAR-3 = test system: OVCAR-3
MDA-N = test system: MDA-N

SMILES | GI50 (NCI-H460) | GI50 (HL-60) | GI50 (KM12) | GI50 (SF-539) | GI50 (SK-OV-3) | GI50 (MDA-MB-435) | GI50 (UO-31) | GI50 (RPMI-8226) | GI50 (PC-3) | GI50 (M14) | GI50 (HOP-92) | GI50 (SN12C) | GI50 (RXF 393) | GI50 (A549) | GI50 (U-251) | GI50 (NCI-H522) | GI50 (HOP-62) | GI50 (OVCAR-3) | GI50 (MDA-N)
CC(C)(C)c1cc(C(=O)/C=C/c2cc[nH]n2)cc(C(C)(C)C)c1O | 3.72 µM (inactive) | 2.23 µM (inactive) | 2.29 µM (inactive) | 3.85 µM (inactive) | 15.7 µM (inactive) | 2.77 µM (inactive) | 1.76 µM (inactive) | 1.06 µM (active) | 2.08 µM (inactive) | 1.82 µM (inactive) | 2.21 µM (inactive) | 1.85 µM (inactive) | 1.69 µM (inactive) | 3.02 µM (inactive) | 1.73 µM (inactive) | 1.43 µM (inactive) | 2.86 µM (inactive) | 2.75 µM (inactive) | 
CCn1c2ccccc2n2c(=O)c3c(c(C#N)c12)CCCC3 | > 100 µM (inactive) | > 100 µM (inactive) | > 100 µM (inactive) | > 100 µM (inactive) | > 100 µM (inactive) | > 100 µM (inactive) | 93.5 µM (inactive) |  | > 100 µM (inactive) | > 100 µM (inactive) | > 100 µM (inactive) | > 100 µM (inactive) |  | > 100 µM (inactive) | > 100 µM (inactive) | > 100 µM (inactive) |  | > 100 µM (inactive) | > 100 µM (inactive)
O=[N+]([O-])c1ccc(/C=C(/c2ccc([N+](=O)[O-])o2)S(=O)(=O)c2ccccc2)o1 | 21.2 µM (inactive) | 2.75 µM (inactive) | 17.7 µM (inactive) | 18.1 µM (inactive) | 29.4 µM (inactive) | 15.2 µM (inactive) | 4.34 µM (inactive) | 0.128 µM (active) | 16.4 µM (inactive) | 11.1 µM (inactive) | 12 µM (inactive) |  | 25.1 µM (inactive) | 18.7 µM (inactive) | 15.9 µM (inactive) | 1.93 µM (inactive) | 17.8 µM (inactive) | 6.14 µM (inactive) | 
NNc1nncn1N | > 100 µM (inactive) | 5.71 µM (inactive) | > 100 µM (inactive) | > 53.8 µM (inactive) | > 100 µM (inactive) | 19.2 µM (inactive) | 84.1 µM (inactive) | 72.1 µM (inactive) | > 100 µM (inactive) | > 100 µM (inactive) | > 100 µM (inactive) | > 73.1 µM (inactive) | > 100 µM (inactive) | > 100 µM (inactive) | > 100 µM (inactive) | > 93.1 µM (inactive) | > 100 µM (inactive) | > 49.7 µM (inactive) | 
O=C(NC(Cc1ccccc1)P(=O)(O)c1ccccc1)OCc1ccccc1 (stereo not drawn) | > 100 µM (inactive) | > 100 µM (inactive) | > 100 µM (inactive) |  | > 100 µM (inactive) | > 100 µM (inactive) | > 100 µM (inactive) | > 100 µM (inactive) | > 100 µM (inactive) | > 100 µM (inactive) | > 100 µM (inactive) | > 100 µM (inactive) |  | > 100 µM (inactive) | > 100 µM (inactive) | > 100 µM (inactive) | > 100 µM (inactive) | > 100 µM (inactive) | > 100 µM (inactive)
CNC1C(O)C(OC2C(N)CC(N)C(OC3OC(C(C)O)C(O)C(O)C3N)C2O)OCC1(C)O (stereo not drawn) | > 100 µM (inactive) | > 100 µM (inactive) | > 100 µM (inactive) | > 100 µM (inactive) | > 100 µM (inactive) | > 100 µM (inactive) | > 100 µM (inactive) | > 100 µM (inactive) | > 100 µM (inactive) | > 100 µM (inactive) |  | > 100 µM (inactive) |  | > 100 µM (inactive) | > 100 µM (inactive) | > 100 µM (inactive) | > 100 µM (inactive) | > 100 µM (inactive) | > 100 µM (inactive)
